In article PMC8208785, “Therapeutic efficacy of novel memantine nitrate MN‐08 in animal models of Alzheimer’s disease” (Aging Cell, 2021):

Key:
[1] = tested on: NMDA receptors (NMDA‐activated current in rat hippocampal neurons); test: whole-cell patch-clamp recording of NMDA-activated current in primary hippocampal neurons; type: cell-based
[2] = tested on: cerebellar granule neurons (CGNs); test: MTT cell viability, glutamate-induced excitotoxicity in CGNs; type: cell-based, rat; conditions: MN‐08 1–50 µM for 2 h, then 100 μM glutamate 24 h
Experimental: Excessive glutamate‐induced excitotoxicity might cause dysfunctions of cellular pathways, subsequently resulting in synaptic dysfunctions and neuronal loss. To evaluate the neuroprotective effects of MN‐08 against excitotoxicity, cerebellar granule neurons (CGNs) were treated with MN‐08 at the concentrations from 1 to 50 µM or memantine from 1 to 10 μM for 2 h, and then exposed to 100 μM glutamate for 24 h. […] Similarly, in APP/PS1 mice, MN‐08 prevented neuronal loss in the hippocampus by upregulating the expression ratio of Bcl‐2/Bax and downregulating the expression ratio of cleaved Caspase‐3 to Caspase‐3 (Figure S6).
CGNs were prepared from the 8-day-old Sprague–Dawley rats as described in our previous publication (Li et al., 2005). Briefly, animals were anesthetized and sacrificed, and their cerebella were collected. […]
Neurotoxicity was assessed using the tetrazolium salt 3-(4,5-dimethylthiazol-2-yl)-2,5- diphenyltetrazolium bromide dye (MTT) assay as previous publication (Luo et al., 2010). […] Cell viability was evaluated by observing colorimetric changes using a CLARIOstar plus Microplate Reader (BMG Labtech, Ortenberg, Germany) at a test wavelength of 570 nm with 655 nm as a reference wavelength. Data were expressed as a percentage of control cultures.

[3] = tested on: 3×Tg‐AD mice; test: Aβ ELISA and Western blotting of APP-processing proteins in 3×Tg-AD mice; type: in vivo
Experimental: Triple transgenic 3×Tg‐AD mice were acquired from Jackson Laboratory and fostered in the Shenzhen Center for Disease Control and Prevention (Shenzhen, China). Eight‐month‐old 3×Tg‐AD mice were categorized into six groups: (1) 3×Tg‐AD +Vehicle group; (2) 3×Tg‐AD +MN‐08 (3 mg/kg) group; (3) 3×Tg‐AD +MN‐08 (6 mg/kg) group; (4) 3×Tg‐AD +MN‐08 (12 mg/kg) group; (5) 3×Tg‐AD +Memantine (Mem, 5 mg/kg) group; (6) 3×Tg‐AD +Donepezil (Done, 1.3 mg/kg, once daily) group; (7) Eight‐month‐old B6129SF2/J mice as a control group. MN‐08 and memantine were given twice daily (Done, once daily) by gastric gavage for 4 months from 8 months of age.
To evaluate the concentration of soluble and insoluble Aβ in AD mice, the hippocampus and cortex were homogenized in the lysate, which was then centrifuged at 12000 g for 30 min at 4°C. Supernatant samples were collected as soluble Aβ. Sediment of the cortex and hippocampus was resuspended with formic acid, incubated on ice for 60 min and then centrifuged at 12,000 g for 30 min at 4°C. The supernatant and Tris/NaH2PO4 buffer were mixed as insoluble Aβ. The concentration of Aβ was analyzed by ELISA kit of human amyloid β (R&D Systems, Minneapolis, MN, USA) following the manufacturer’s instructions.
Western blotting analysis was performed as previously described with minor modifications (Huang, Li, & Nan, 2017). Proteins were extracted from hippocampal tissue and their concentrations determined by the BCA protein assay kit (Fdbio science, Hangzhou, China). The protein (20 μg) was separated on a 12% SDS-PAGE gel and then transferred to PVDF membranes. The membranes were blocked using 5 % nonfat dry milk for 2 h. The protein blots were incubated with the corresponding primary antibodies against p-Akt (#4060, 1:1000, Cell Signaling Technology), Akt (#4685, 1:1000, Cell Signaling Technology), BACE1 (#5606, 1:1000, Cell Signaling Technology), PS1 (#5643, 1:1000, Cell Signaling Technology), p-GSK3β (#5558, 1:1000, Cell Signaling Technology), GSK3β (#12456, 1:1000, Cell Signaling Technology), Bcl-2 (#3498, 1:1000, Cell Signaling Technology), Bax (#5023, 1:1000, Cell Signaling Technology), Cleaved caspase-3 (#9661, 1:1000, Cell Signaling Technology), Caspase-3 (#9662, 1:1000, Cell Signaling Technology), ADAM10 (#14194, 1:1000, Cell Signaling Technology), APP (#ab241592, 1:1000, Abcam), sAPPα (#ab126723, 1:1000, Abcam), NEP (#ab216341, 1:1000, Abcam), Synapsin I (#ab64581, 1:1000, Abcam), Synapsin II (#ab76494, 1:1000, Abcam), NR2A (#ab124913, 1:2000, Abcam), PSD95 (#ab18258, 1:1000, Abcam), Synaptophysin (#ab32127, 1:1000, Abcam), IDE (#ab133561, 1:1000, Abcam), Drebin (#ab178408, 1:1000, Abcam) and Tau-5 (#ab80579, 1:2000, Abcam) overnight at 4°C. After washing 3 times, the membranes were incubated with the respective HRP-conjugated secondary antibody. ECL Western blotting Detection Reagents (Fdbio science, Hangzhou, China) were used to perform Chemiluminescence detection. Quantitative analysis of protein bands was conducted by the Carestream system (Carestream Health, Inc, USA).

[4] = tested on: experimental subarachnoid hemorrhage models; design: method as in Luo et al., 2019; conditions: ref Luo et al., 2019; cited from earlier work
[5] = MN‐08 6 mg/kg, hippocampi, Western blot

## CCC12CC3CC(N)(C1)CC(CO[N+](=O)[O-])(C3)C2 (centres unmarked) [MN‐08]
[1]
  IC50 on NMDA‐mediated current compared with memantine: slightly high than memantine
[1]; MN‐08 1–30 µM, whole‐cell patch‐clamp
  NMDA‐activated current: inhibited
[1]; NMDA 30 µM, −50 mV
  NMDA‐activated current after washout of the compound (off‐rate): recovered rapidly
[1]; holding potential −50 mV, NMDA 30 μM, rat hippocampal neurons, read-out: IC50 on the inhibition of NMDA‐mediated current
  IC50: 7.32 ± 0.23 µM
[2]
  protection against glutamate‐induced excitotoxicity (MTT): concentration‐dependently protect
[3]; MN‐08 6 mg/kg, hippocampal and cortical areas
  Aβ accumulation (ELISA): significant reduction
[3]; [5]
  expression of total APP: significantly decreased
  expression of α‐secretase (ADAM10) and neprilysin (NEP): enhanced
  levels of sAPPα: increasing
[3]; hippocampi, Western blot
  expression of IDE, PS1, or BACE1: no effect
[4]
  cerebral blood flow: increase
